Test results published in patent US12419890B2, “Administration of sumo-activating enzyme inhibitor and checkpoint inhibitors” (Takeda Pharmaceutical Company Limited, priority 2019, dated 2025).

How the values were obtained:
[1] = tested on: JC syngeneic mouse breast adenocarcinoma-derived subcutaneous tumor; assay: JC Study 6: mouse JC syngeneic tumor model, individual tumor volume; assay type: in vivo; conditions: Compound I-263a 7.5 mg/kg IV or anti-mPD-1 10 mg/kg IP, BIWx3 till Day 14
Description: JC Study 6: JC is a mouse breast adenocarcinoma cell line. JC mouse syngeneic tumor model was generated by subcutaneous inoculation with 0.2×10^6 JC cells (cell suspension) in 10 weeks old female BALB/c mice (Vital River Laboratory Animal Technology Co., Ltd., Beijing, China) in the flank. When the mean tumor volume reached approximately 45 mm^3, the animals were randomized into one vehicle control and five treatment groups (n=8/group). Mice were then dosed with 20% HPbCD or Compound I-263a or anti-mouse PD-1 antibody over a 21-day period. Tumor growth and body weight were measured twice per week during the treatment and post-treatment periods, and mice were humanely euthanized once they had reached their humane endpoint.
(§1) Study 6: A 0.75 mg/mL stock solution of Compound I-263a was formulated weekly in 20% HPβCD and administered intravenously (IV) based on exact animal body weight on each day of treatment, using a dosing volume of 10 mL/kg body weight. Final doses received were 7.5 mg/kg. Dosing volume for Compound I-263a was 0.2 mL. […]
(§2) Tumors were measured twice weekly using vernier calipers. Tumor volumes were calculated using standard equation: V=W^2×L/2, where V=volume, W=width, and L=length for the tumor. […] Tumor size and body weight were measured twice a week for the duration of the study. […]

[2] = tested on: A20 syngeneic mouse B-cell lymphoma-derived subcutaneous tumor; assay: A20 Study 3: mouse A20 syngeneic tumor model, individual tumor volume; assay type: in vivo
Description: A20 Study 3: A20 is a mouse B-cell lymphoma cell line. A20 mouse syngeneic tumor model was generated by subcutaneous inoculation with 1.0×10^6 A20 cells (cell suspension) in 8 weeks old female BALB/c mice (Jackson Laboratory, 600 Main St, Bar Harbor, ME) in the flank. When the mean tumor volume reached approximately 50 mm^3, the animals were randomized into one vehicle control and three treatment groups (n=7/group). Mice were then dosed with 20% HPbCD or Compound I-263a or anti-mouse PD-1 antibody over a 11-day period. Tumor growth and body weight were measured twice per week during the treatment and post-treatment periods, and mice were humanely euthanized once they had reached their humane endpoint.
as §1, with “3:” for “6:”, “1.65” for “0.75”, “15” for “7.5”
as §2

## Cc1sc(C(=O)c2cncnc2N[C@@H]2C[C@H](COS(N)(=O)=O)[C@@H](O)C2)cc1[C@@H]1NCCc2ccc(Cl)cc21 [Compound I-263a, [(1R,2S,4R)-4-{[5-({4-[(1R)-7-chloro-1,2,3,4-tetrahydroisoquinolin-1-yl]-5-methyl-2-thienyl}carbonyl)pyrimidin-4-yl]amino}-2-hydroxycyclopentyl]methyl sulfamate]
[1]; 8 tumors/group
  tumor growth inhibition / antitumor activity: very little tumor growth inhibition
[1]; delay from day 16-18, out of 8 implanted
  tumors with slight growth delay: one
[2]; Compound I-263a 15 mg/kg IV QWx1 (Day 1), 7 tumors/group
  inhibition of tumor growth: modest inhibition
[2]; stasis to day 8 of treatment, followed by rapid growth, out of 7 implanted, Compound I-263a 15 mg/kg IV Day 1
  tumors in stasis: 2
